Source: ChEMBL document CHEMBL4613324, “Design, Synthesis, and Evaluation of a Series of Novel Super Long-Acting DPP-4 Inhibitors for the Treatment of Type 2 Diabetes” (J Med Chem, 2020)
The source made the active and inactive calls. The rule behind the calls is not given here.

Experiments:
Cytochrome P450 3A4 [1] = target: T1, Cytochrome P450 3A4 (Homo sapiens, UniProt P08684); experiment: Inhibition of recombinant human CYP3A4 using midazolam as substrate; assay type: ADME
[2] = target: Voltage-gated inwardly rectifying potassium channel KCNH2 (Homo sapiens, UniProt Q12809); experiment: Inhibition of human ERG by manual whole-cell patch-clamp assay
Cytochrome P450 2C9 [3] = target: T2, Cytochrome P450 2C9 (Homo sapiens, UniProt P11712); experiment: (§1) Inhibition of recombinant human CYP2C9; assay type: ADME
T2 sequence (P11712 whole entry): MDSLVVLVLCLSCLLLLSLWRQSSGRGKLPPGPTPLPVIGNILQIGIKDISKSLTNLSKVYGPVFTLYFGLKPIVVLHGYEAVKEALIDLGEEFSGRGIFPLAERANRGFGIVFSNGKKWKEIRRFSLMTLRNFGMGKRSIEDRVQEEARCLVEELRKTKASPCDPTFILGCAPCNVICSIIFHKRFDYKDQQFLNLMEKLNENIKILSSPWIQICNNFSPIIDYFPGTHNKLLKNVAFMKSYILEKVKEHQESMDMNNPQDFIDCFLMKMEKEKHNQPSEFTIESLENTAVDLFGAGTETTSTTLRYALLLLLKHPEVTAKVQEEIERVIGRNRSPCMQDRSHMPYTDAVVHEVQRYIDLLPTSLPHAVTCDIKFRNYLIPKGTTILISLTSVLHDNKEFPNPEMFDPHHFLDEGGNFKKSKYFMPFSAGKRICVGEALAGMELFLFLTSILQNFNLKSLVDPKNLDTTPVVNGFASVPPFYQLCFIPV

Cytochrome P450 2C9 [4] = target: T2, Cytochrome P450 2C9; experiment: as §1; assay type: ADME; remark: listed apart in the source
Cytochrome P450 2E1 [5] = target: T3, Cytochrome P450 2E1 (Homo sapiens, UniProt P05181); experiment: (§2) Inhibition of recombinant human CYP2E1; assay type: ADME
T3 sequence (P05181 whole entry): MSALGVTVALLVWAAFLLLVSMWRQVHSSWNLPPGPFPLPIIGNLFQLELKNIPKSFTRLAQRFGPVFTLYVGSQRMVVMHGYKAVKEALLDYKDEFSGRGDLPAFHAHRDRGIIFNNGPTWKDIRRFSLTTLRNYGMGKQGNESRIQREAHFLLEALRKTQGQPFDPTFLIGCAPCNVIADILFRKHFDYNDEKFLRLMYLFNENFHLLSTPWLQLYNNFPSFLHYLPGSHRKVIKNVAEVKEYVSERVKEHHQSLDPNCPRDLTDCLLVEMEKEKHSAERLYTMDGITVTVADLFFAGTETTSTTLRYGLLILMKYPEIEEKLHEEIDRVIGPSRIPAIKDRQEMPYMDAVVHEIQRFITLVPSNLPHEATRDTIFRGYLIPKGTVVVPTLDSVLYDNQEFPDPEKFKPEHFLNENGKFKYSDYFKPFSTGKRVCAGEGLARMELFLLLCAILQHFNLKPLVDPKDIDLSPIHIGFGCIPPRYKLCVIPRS

CYP3A5 = CYP3A5 (Homo sapiens, UniProt P20815); experiment: Stability assessed as recombinant human CYP3A5 mediated compound metabolism by measuring parent compound remaining after 30 mins relative to control; assay type: ADME; conditions: read-out: Stability
Chain of CYP3A5 (P20815 whole entry): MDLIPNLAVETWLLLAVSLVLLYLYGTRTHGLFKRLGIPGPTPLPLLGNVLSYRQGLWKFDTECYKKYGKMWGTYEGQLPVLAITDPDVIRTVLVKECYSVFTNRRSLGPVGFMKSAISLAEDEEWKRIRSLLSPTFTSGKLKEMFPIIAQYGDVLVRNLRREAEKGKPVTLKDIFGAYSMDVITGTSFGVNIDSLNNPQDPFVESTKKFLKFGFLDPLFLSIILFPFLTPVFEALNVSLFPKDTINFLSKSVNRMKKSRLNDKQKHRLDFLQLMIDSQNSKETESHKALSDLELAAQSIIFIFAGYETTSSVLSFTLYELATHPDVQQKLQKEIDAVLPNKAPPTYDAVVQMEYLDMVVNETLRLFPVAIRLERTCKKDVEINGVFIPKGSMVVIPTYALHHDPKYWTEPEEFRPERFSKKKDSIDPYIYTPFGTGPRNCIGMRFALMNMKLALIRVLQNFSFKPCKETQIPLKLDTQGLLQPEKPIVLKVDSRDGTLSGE

Cytochrome P450 3A4 [6] = target: T1, Cytochrome P450 3A4; experiment: (§3) Inhibition of recombinant human CYP3A4 using testosterone as substrate; assay type: ADME
[7] = target: Dipeptidyl peptidase 4 (Mus musculus) (UniProt P28843); experiment: Ex-vivo inhibition of DPP4 in plasma isolated from ob/ob mouse treated at 3 to 30 mg/kg, po measured after 2 to 72 hrs by fluorescence based assay; assay type: functional, organism-based
Chain of Dipeptidyl peptidase 4 (Mus musculus) (P28843 whole entry, looked up): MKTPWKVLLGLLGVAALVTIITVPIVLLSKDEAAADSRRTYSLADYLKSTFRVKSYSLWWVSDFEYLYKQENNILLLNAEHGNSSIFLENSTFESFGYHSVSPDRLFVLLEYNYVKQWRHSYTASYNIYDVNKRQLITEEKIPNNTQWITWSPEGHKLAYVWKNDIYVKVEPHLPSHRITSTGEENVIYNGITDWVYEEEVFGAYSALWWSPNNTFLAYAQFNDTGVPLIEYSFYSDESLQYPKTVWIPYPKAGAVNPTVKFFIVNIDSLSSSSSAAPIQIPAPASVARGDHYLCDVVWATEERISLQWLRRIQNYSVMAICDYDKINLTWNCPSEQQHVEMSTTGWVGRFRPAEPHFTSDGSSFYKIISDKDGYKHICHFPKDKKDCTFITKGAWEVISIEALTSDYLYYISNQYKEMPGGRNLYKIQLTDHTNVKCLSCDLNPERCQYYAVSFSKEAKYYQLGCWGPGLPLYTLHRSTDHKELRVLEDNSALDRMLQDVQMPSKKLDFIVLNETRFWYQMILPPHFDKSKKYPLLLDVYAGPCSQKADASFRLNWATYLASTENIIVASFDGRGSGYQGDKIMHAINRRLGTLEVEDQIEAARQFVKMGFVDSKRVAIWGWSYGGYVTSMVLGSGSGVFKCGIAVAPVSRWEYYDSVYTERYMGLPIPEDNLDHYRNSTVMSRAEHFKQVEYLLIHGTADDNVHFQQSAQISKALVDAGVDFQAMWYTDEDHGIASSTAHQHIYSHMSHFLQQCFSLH

[8] = Cmax in ICR mouse at 2 mg/kg, po measured after 0.0833 to 120 hrs by LC-MS-MS analysis; assay type: ADME, organism-based; set-up: dose 2 mg/kg, route oral; conditions: in vivo
Cytochrome P450 2D6 [9] = target: T4, Cytochrome P450 2D6 (Homo sapiens, UniProt P10635); experiment: (§4) Inhibition of recombinant human CYP2D6; assay type: ADME
T4 sequence (P10635 whole entry): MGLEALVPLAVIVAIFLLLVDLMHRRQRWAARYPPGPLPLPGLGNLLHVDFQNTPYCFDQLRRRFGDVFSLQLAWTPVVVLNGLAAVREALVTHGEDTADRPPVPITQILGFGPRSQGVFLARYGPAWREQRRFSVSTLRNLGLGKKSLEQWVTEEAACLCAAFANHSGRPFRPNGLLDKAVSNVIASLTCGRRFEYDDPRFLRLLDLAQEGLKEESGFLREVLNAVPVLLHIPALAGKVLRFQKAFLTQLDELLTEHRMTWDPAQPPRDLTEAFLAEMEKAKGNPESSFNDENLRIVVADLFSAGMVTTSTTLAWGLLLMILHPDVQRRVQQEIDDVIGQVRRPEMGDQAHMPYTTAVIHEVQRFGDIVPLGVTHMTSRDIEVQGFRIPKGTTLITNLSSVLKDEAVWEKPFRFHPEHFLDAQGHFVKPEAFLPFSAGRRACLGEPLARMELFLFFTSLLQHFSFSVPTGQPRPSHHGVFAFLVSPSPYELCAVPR

Dipeptidyl peptidase 9 = Dipeptidyl peptidase 9 (Homo sapiens, UniProt Q86TI2); experiment: Inhibition of human recombinant DPP9 incubated for 15 mins using Gly-Pro-7-AMC substrate
Mus musculus [10] = experiment: Antidiabetic activity in ob/ob mouse assessed as reduction in decrease in HbA1c level at 3 to 10 mg/kg, po dosed once every three days for 31 day; assay type: functional, organism-based
Cytochrome P450 2D6 [11] = target: T4, Cytochrome P450 2D6; experiment: as §4; assay type: ADME; remark: listed apart in the source
CYP2C19 = CYP2C19 (Homo sapiens, UniProt P33261); experiment: Stability assessed as recombinant human CYP2C19 mediated compound metabolism by measuring parent compound remaining after 30 mins relative to control; assay type: ADME; conditions: read-out: Stability
Chain of CYP2C19 (P33261 whole entry): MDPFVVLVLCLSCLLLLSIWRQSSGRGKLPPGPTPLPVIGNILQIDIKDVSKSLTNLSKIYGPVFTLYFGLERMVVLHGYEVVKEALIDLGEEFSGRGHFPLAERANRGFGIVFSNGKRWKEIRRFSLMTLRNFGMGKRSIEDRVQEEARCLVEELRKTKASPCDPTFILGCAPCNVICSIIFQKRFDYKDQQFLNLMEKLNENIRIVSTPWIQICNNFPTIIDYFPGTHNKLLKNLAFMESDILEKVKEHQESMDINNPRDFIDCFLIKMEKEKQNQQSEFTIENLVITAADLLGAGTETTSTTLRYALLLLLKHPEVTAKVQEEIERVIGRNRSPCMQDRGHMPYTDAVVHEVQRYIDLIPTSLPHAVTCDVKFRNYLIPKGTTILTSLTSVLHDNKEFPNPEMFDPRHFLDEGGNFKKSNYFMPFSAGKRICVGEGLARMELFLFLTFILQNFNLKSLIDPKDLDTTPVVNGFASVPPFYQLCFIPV

Mus musculus [12] = experiment: Antidiabetic activity in ob/ob mouse assessed as reduction in decrease in HbA1c level at 1 mg/kg, po dosed once every three days for 31 day relative to control; assay type: functional; set-up: scale not given: the % may be the effect or the level left
Cytochrome P450 3A5 [13] = target: T5, Cytochrome P450 3A5 (Homo sapiens, UniProt P20815); experiment: Inhibition of recombinant human CYP3A5 using testosterone as substrate; assay type: ADME
T5 sequence (P20815 whole entry): as the sequence (P20815 whole entry) above

CYP2D6 = CYP2D6 (Homo sapiens, UniProt P10635); experiment: Stability assessed as recombinant human CYP2D6 mediated compound metabolism by measuring parent compound remaining after 30 mins relative to control; assay type: ADME; conditions: read-out: Stability
Chain of CYP2D6 (P10635 whole entry): as the sequence (P10635 whole entry) above

[14] = target: Dipeptidyl peptidase 4 (Mus musculus) (UniProt P28843); experiment: Ex-vivo inhibition of DPP4 in plasma isolated from ob/ob mouse assessed as time duration during which DPP4 inhibition rate stays above 80% treated at 30 mg/kg, po measured after 2 to 72 hrs by fluorescence based assay; assay type: functional, organism-based
Mus musculus [15] = experiment: Antidiabetic activity in ob/ob mouse assessed as reduction in random blood glucose levels at 1 to 10 mg/kg, po dosed once every three days for 31 days; assay type: functional, organism-based
CYP2B6 = CYP2B6 (Homo sapiens, UniProt P20813); experiment: Stability assessed as recombinant human CYP2B6 mediated compound metabolism by measuring parent compound remaining after 30 mins relative to control; assay type: ADME; conditions: read-out: Stability
Chain of CYP2B6 (P20813 whole entry): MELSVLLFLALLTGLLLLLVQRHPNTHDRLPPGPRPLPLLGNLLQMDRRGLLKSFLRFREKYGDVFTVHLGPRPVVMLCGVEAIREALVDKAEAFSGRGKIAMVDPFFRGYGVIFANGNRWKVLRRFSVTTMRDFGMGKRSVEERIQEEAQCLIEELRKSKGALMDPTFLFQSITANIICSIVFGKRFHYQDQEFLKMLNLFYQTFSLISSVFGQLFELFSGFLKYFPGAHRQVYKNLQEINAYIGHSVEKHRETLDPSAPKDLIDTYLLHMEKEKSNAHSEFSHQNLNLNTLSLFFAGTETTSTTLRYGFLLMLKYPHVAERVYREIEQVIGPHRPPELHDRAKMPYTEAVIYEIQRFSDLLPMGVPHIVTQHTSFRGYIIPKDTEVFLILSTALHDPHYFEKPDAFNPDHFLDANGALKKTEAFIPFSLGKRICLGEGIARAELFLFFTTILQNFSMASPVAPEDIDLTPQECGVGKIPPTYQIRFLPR

Cytochrome P450 2D6 [16] = target: T4, Cytochrome P450 2D6; experiment: as §4; assay type: ADME; remark: listed apart in the source
[17] = Clearance in ICR mouse at 0.5 mg/kg, iv measured after 0.0833 to 120 hrs by LC-MS-MS analysis; assay type: ADME, organism-based; conditions: in vivo
Dipeptidyl peptidase 8 = Dipeptidyl peptidase 8 (Homo sapiens, UniProt Q6V1X1); experiment: Inhibition of human recombinant DPP8 incubated for 15 mins using Gly-Pro-7-AMC substrate
Cytochrome P450 2A6 = target: T6, Cytochrome P450 2A6 (Homo sapiens, UniProt P11509); experiment: Inhibition of recombinant human CYP2A6; assay type: ADME
T6 sequence (P11509 whole entry): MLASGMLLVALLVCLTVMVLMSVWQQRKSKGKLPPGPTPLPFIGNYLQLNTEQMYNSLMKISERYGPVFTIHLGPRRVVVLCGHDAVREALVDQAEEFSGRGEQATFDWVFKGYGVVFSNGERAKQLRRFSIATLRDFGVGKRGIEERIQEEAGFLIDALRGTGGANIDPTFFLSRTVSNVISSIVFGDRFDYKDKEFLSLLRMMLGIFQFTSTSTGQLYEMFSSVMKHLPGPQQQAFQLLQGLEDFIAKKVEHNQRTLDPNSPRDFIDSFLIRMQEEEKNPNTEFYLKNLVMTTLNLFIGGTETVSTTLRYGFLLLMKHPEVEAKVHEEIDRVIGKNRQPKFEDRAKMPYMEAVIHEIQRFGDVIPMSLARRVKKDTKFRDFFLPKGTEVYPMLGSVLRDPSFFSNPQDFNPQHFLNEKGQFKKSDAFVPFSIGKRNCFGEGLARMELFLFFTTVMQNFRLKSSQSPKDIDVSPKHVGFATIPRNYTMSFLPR

[18] = Half life in ICR mouse at 2 mg/kg, po measured after 0.0833 to 120 hrs by LC-MS-MS analysis; assay type: ADME, organism-based; conditions: in vivo
Cytochrome P450 2E1 [19] = target: T3, Cytochrome P450 2E1; experiment: as §2; assay type: ADME; remark: listed apart in the source
Rhesus monkey [20] = experiment: Ex-vivo inhibition of DPP4 in plasma isolated from rhesus monkey treated at 10 mg/kg, ig after 3 weeks by fluorescence based assay relative to control; assay type: functional; conditions: Macaca mulatta, po, 504 h
Cytochrome P450 3A4 [21] = target: T1, Cytochrome P450 3A4; experiment: as §3; assay type: ADME; remark: listed apart in the source
Cytochrome P450 2C19 [22] = target: T7, Cytochrome P450 2C19 (Homo sapiens, UniProt P33261); experiment: (§5) Inhibition of recombinant human CYP2C19; assay type: ADME
T7 sequence (P33261 whole entry): as the sequence (P33261 whole entry) above

Rhesus monkey [23] = experiment: Ex-vivo inhibition of DPP4 in plasma isolated from rhesus monkey treated at 10 mg/kg, ig after 12 days by fluorescence based assay relative to control; assay type: functional; conditions: Macaca mulatta, po, 288 h
Cytochrome P450 3A5 [24] = target: T5, Cytochrome P450 3A5; experiment: (§6) Inhibition of recombinant human CYP3A5 using midazolam as substrate; assay type: ADME
[25] = Toxicity in Sprague-Dawley rat during single oral dose toxicology study; conditions: in vivo
Cytochrome P450 2C19 [26] = target: T7, Cytochrome P450 2C19; experiment: as §5; assay type: ADME; remark: listed apart in the source
Cytochrome P450 3A5 [27] = target: T5, Cytochrome P450 3A5; experiment: as §6; assay type: ADME; remark: listed apart in the source

T1 sequence (P08684 whole entry): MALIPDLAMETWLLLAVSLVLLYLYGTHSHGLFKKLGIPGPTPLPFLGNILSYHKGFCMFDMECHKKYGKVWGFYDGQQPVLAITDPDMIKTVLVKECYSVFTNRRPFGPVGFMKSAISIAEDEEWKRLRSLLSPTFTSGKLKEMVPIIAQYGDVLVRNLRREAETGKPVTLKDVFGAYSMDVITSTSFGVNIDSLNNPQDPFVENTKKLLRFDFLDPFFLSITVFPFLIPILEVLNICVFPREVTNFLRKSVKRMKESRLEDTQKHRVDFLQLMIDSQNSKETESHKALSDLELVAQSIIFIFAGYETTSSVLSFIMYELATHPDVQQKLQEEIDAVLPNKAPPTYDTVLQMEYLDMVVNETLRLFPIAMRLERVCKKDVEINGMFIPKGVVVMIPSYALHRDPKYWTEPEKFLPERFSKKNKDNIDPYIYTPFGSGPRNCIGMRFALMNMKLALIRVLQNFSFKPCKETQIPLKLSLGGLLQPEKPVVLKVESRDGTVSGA

CS(=O)(=O)n1cc2c(n1)CN([C@@H]1C[C@H](N)[C@@H](c3cc(F)ccc3F)O[C@@H]1C(F)(F)F)C2 [COFROGLIPTIN]
IC50 (Cytochrome P450 3A4 [1]): > 100 µM | IC50 [2]: > 30 µM | IC50 (Cytochrome P450 2C9 [3]): > 100 µM | IC50 (Cytochrome P450 2C9 [4]): > 100 µM | IC50 (Cytochrome P450 2E1 [5]): > 100 µM | remaining at 0.5 h (CYP3A5): > 95% | IC50 (Cytochrome P450 3A4 [6]): > 100 µM | inhibition [7]: Dose-dependent effect | Cmax [8]: 352 ng/mL | IC50 (Cytochrome P450 2D6 [9]): > 100 µM | IC50 (Dipeptidyl peptidase 9): > 100 µM | Activity (Mus musculus [10]): Active | IC50 (Cytochrome P450 2D6 [11]): > 100 µM | remaining at 0.5 h (CYP2C19): > 95% | Activity (Mus musculus [12]): 3.1% | IC50 (Cytochrome P450 3A5 [13]): > 100 µM | remaining at 0.5 h (CYP2D6): > 95% | TIME [14]: 72 h | Activity (Mus musculus [15]): Active | remaining at 0.5 h (CYP2B6): > 95% | IC50 (Cytochrome P450 2D6 [16]): > 100 µM | clearance [17]: 2.57 mL/min/kg | IC50 (Dipeptidyl peptidase 8): > 100 µM | IC50 (Cytochrome P450 2A6): > 100 µM | half-life [18]: 29.9 h | IC50 (Cytochrome P450 2E1 [19]): > 100 µM | inhibition in vivo at 10 mg/kg (Rhesus monkey [20]): 43.4% | IC50 (Cytochrome P450 3A4 [21]): > 100 µM | IC50 (Cytochrome P450 2C19 [22]): > 100 µM | inhibition in vivo at 10 mg/kg (Rhesus monkey [23]): > 80% | IC50 (Cytochrome P450 3A5 [24]): 45.8 µM | MTD [25]: 1000 mg/kg | IC50 (Cytochrome P450 2C19 [26]): > 100 µM | IC50 (Cytochrome P450 3A5 [27]): > 100 µM
